{"source": "patent US5457099A", "about": "“Carbostyril derivatives and antiallergic agent” (Sawai Pharmaceutical Co., Ltd., priority 1992, dated 1995)", "key": {"[1]": {"tested_on": "passive cutaneous anaphylaxis (PCA) reaction in rats", "test": "Inhibition of PCA reaction in rats", "assay_type": "in vivo, Wistar rats", "settings": "Rattus norvegicus, po; for inhibition in vivo at 10 mg/kg: read-out: Inhibition of PCA in rat", "procedure": "(§1) Antiserum was prepared according to the method described in J. Immunol., 106, 1002 (1971). The titer (or highest effective dilution which gave a mean 48 hours PCA response of 5 mm in diameter in a rat) of the antiserum used was 1:200.\nWistar rats were passively sensitized by intracutaneous injection of 0.05 ml antiserum diluted 75 times with physiological saline at two sheared sites of dorsal skin. After 48 hours, 0.5ml/animal of 1% Evans blue-physiological saline containing 2mg ovalbumin was administered into caudal vein to elicit the reaction. After 30 minutes, rats were sacrificed by decapitative bleeding and the dorsal skin was flayed. Dye stuff exuded at the reaction site was extracted according to the method described in Microbiol. Immunol., 22, 89 (1978). Briefly, two circular pieces of sensitized areas and one circular piece of unsensitized area (as the control) were punched at 1.8 cm diameter. The disks were placed in test tubes and treated overnight with 1 ml 1N-KOH at 37° C. Then 9ml 0.6N-H3 PO4 /acetone (5/13) was added and the mixture was thoroughly stirred and centrifuged (3000 rpm, 10 minutes). The supernatant was assayed for absorption at 620 nm. The amount of dye stuff was calculated from the standard curve previously prepared with known amounts of Evance blue. The conditions of sensitization and the amount of antigen were based on Nippon Yakurigaku Zasshi (Japanese Journal of Pharmacology),80, 261 (1982).\nTest drugs and Oxatomide as a positive control were administered orally before 1 hour of elicitation through a gastric tube at 1 ml/200g body weight. In the test, groups of 6 to 7 animals and groups of 8 to 9 animals were used for test drugs and control, respectively."}, "[2]": {"tested_on": "blood TXA2", "test": "Blood thromboxane (TX)A2 in sensitized rats", "assay_type": "in vivo, Male Wistar rats", "settings": "1 mg/kg orally", "procedure": "(§2) Male Wistar rats of 7 weeks old and weighing about 280 g were passively sensitized with rat anti-ovalbumin anti-serum prepared according to the method of Tada and Okumura. Similarly, Hartley guinea pigs of 8 weeks old and weighing about 500 g were passively sensitized with guinea pig anti-ovalbumin antiserum prepared by immunizing with a mixed emulsion of ovalbumin and complete Freund's adjuvant (4.5:5.5) .\n(§3) After 24 hours, trachea was incised under urethane ansthetiziation and cannulated with a respirator. Ovalbumin was intravenously administered to elicit the reaction while observing airway resistance according to a modified Konzett and Roessler method. Drugs were orally administered before 1 hour of elicitation of reaction. Blood samples were drawn from artery of rats and guinea pigs before the elicitaiton and after 8 minutes and 15 minutes, respectively, of the elicitation. The obtained blood samples were immediately mixed with 10 mM EDTA disodium and 0.4 mM indomethacin and centrifuged to separate blood plasma. TXB2, a metabolite of TXA2, in the blood plasma was partially purified by C18 column and determined by Enzyme Immunoassay Kit."}, "[3]": {"test": "Acute toxicity in mice", "assay_type": "in vivo", "settings": "mouse, in vivo, suspension in 0.5% carboxymethylcellulose sodium", "procedure": "as §1\n(§4) Male IcR mice (SPF) (Nippon SLC, weight:24-32 g) of 4 weeks age were fasted for 5 hours before the test. The test compound (III-2) was administered in the form of a suspension in 0.5% carboxymethylcellulose sodium salt (0.2 ml per 10 g). Survived and dead animals were autopsied at day 14 and immediately after the death, respectively."}, "[4]": {"tested_on": "Male IcR mice", "test": "Acute toxicity in mice", "assay_type": "in vivo", "settings": "p.o. and i.p.", "procedure": "as §1, §4"}, "[5]": {"tested_on": "blood TXA2", "test": "Blood thromboxane (TX)A2 in sensitized guinea pigs", "assay_type": "in vivo, Hartley guinea pigs", "procedure": "as §2, §3"}, "[6]": {"tested_on": "experimental asthma in rats", "test": "Inhibition of experimental asthma in rats", "assay_type": "in vivo, Wistar rats", "settings": "Rattus norvegicus, po; for inhibition in vivo at 10 mg/kg: read-out: Inhibition of Experimental Asthma in rat", "procedure": "as §1\nWistar rats were passively sensitized by injection into caudal vein of 2.0ml/animal antiserum. After 24 hours, anaphylactic airway contraction caused by administration of antigen was measured by a modified Konzett and Roessler method. Briefly, the animal was fixed at dorsal position under urethane (1.5 g/kg, i.p.) anesthetization and connected with a respirator (Harvard Model 683, respiratory volume: 3-5 ml/respiration; respiratory rate: 72/minute) via an incised tracheal cannula. […] Oxatomide was administered two hours before the test, which is the optimal conditions according to Nippon Yakurigaku Zasshi (Japanese Journal of Pharmacology), 80, 261 (1982), and the other test drugs were orally administered at a rate of 0.2 ml/100 g body weight one hour before the test using a gastric tube. At the end of measurement, the trachea was blocked with a Kocher clamp and the measured values were expressed in percent taking the value at blockage as the maximum contraction (100%)."}, "[7]": {"tested_on": "experimental asthma in guinea pigs", "test": "Inhibition of experimental asthma in guinea pigs", "assay_type": "in vivo, Male Hartley guinea pigs", "settings": "p.o., 1 mg/kg; significance vs. control: * p < 0.05, *** p < 0.001", "procedure": "Male Hartley guinea pigs (N=10) were passively sensitized by intravenous injection of guinea pig antiovalbumin antiserum (titer for 3 hours PCA: 16000 times) diluted 5 times with physiological saline at a rate of 0.2 ml/animal. After 24 hours, the animal was fixed at dorsal position under urethane anesthetization and connected with a respirator (Harvard Model 683, respiratory volume: 4-6 ml/respiration; respiratory rate: 40/minute) via an incised tracheal cannula. Then 1 mg/kg Gallamine triethiodide was intravenously administered to stop the spontaneous respiration. […] Oxatomide was administered two hours before the challenge by antigen and the test drug (compound III-2) and Ketotifen were administered orally 1 hour before the challenge."}}, "note": "Where two headings read alike, the source gives them in different places."}
{"compound": "O=c1cc(CCN2CCC(c3c[nH]c4ccccc34)CC2)c2ccccc2[nH]1", "note": "[III-2, 4-[2-[4-(1H-indol-3-yl)-1-piperidinyl]ethyl]-2-(1H)-quinolinone]", "values": [{"measurement": "inhibition in vivo at 10 mg/kg", "setting": "[1]", "value": 67.4, "unit": "%"}, {"measurement": "inhibition in vivo at 30 mg/kg", "setting": "[1]; other dosage/kg: 30 mg", "value": 74.6, "unit": "%"}, {"measurement": "Inhibition of blood TXA2 increase", "setting": "[2]; n = 11", "value": 68.7, "unit": "%"}, {"measurement": "Blood TXA2 after reaction", "setting": "[2]; n = 11, ***p < 0.001 vs. control", "value": 0.45, "unit": "ng/mL"}, {"measurement": "LD50 at 336 h", "setting": "[3]; ip, read-out: LD50 for i.p.", "value": "> 1000", "unit": "mg/kg"}, {"measurement": "LD50 at 336 h", "setting": "[3]; po, read-out: LD50 for p.o.", "value": "> 3000", "unit": "mg/kg"}, {"measurement": "Acute toxicity (in words)", "setting": "[4]", "value": "low toxity"}, {"measurement": "Blood TXA2 before reaction", "setting": "[5]; 3 mg/kg orally 1 hour before elicitation, n = 5", "value": "0.26 ± 0.05", "unit": "ng/mL"}, {"measurement": "Inhibition of blood TXA2 increase", "setting": "[5]; 3 mg/kg orally, n = 5", "value": 94.4, "unit": "%"}, {"measurement": "Blood TXA2 after reaction", "setting": "[5]; 3 mg/kg orally, n = 5, *p < 0.05 vs. control", "value": 0.28, "unit": "ng/mL"}, {"measurement": "inhibition in vivo at 10 mg/kg", "setting": "[6]", "value": 94.8, "unit": "%"}, {"measurement": "inhibition in vivo at 0.1 mg/kg", "setting": "[6]; other dosage/kg: 0.1 mg", "value": 27.5, "unit": "%"}, {"measurement": "inhibition in vivo at 0.3 mg/kg", "setting": "[6]; other dosage/kg: 0.3 mg", "value": 84.3, "unit": "%"}, {"measurement": "inhibition in vivo at 1 mg/kg", "setting": "[6]; other dosage/kg: 1 mg", "value": 73, "unit": "%"}, {"measurement": "inhibition in vivo at 3 mg/kg", "setting": "[6]; other dosage/kg: 3 mg", "value": 95.5, "unit": "%"}, {"measurement": "Inhibition % of experimental asthema in guinea pig", "setting": "[7]", "value": 70.3, "unit": "%"}]}
{"compound": "O=c1cc(CN2CCN(C(c3ccccc3)c3ccccc3)CC2)c2ccccc2[nH]1", "note": "[III-6, 4-[[4-(diphenylmethyl)-1-piperazinyl]methyl]-2(1H)-quinolinone]", "values": [{"measurement": "inhibition in vivo at 10 mg/kg", "setting": "[1]", "value": 9.7, "unit": "%"}, {"measurement": "inhibition in vivo at 10 mg/kg", "setting": "[6]", "value": 57.2, "unit": "%"}]}
{"compound": "O=c1cc(CCN2CCN(C(c3ccccc3)c3ccc(Cl)cc3)CC2)c2ccccc2[nH]1", "note": "(stereo not drawn) [III-9]", "values": [{"measurement": "inhibition in vivo at 10 mg/kg", "setting": "[1]", "value": 8.9, "unit": "%"}, {"measurement": "inhibition in vivo at 10 mg/kg", "setting": "[6]", "value": 34.6, "unit": "%"}]}
{"compound": "Cc1ccc(-c2cc(=O)n(CCCN3CCC(c4c[nH]c5ccccc45)CC3)c3ccccc23)cc1", "note": "[VII-7, 1-[3-[4-(1H-indol-3-yl)-piperidinyl]propyl]-4-(4-methylphenyl)-2(1H)-quinolinone]", "values": [{"measurement": "inhibition in vivo at 10 mg/kg", "setting": "[1]", "value": 18.5, "unit": "%"}, {"measurement": "inhibition in vivo at 10 mg/kg", "setting": "[6]", "value": 13.1, "unit": "%"}]}
{"compound": "CN1CCC(=C2c3ccccc3CC(=O)c3sccc32)CC1", "note": "[Ketotifen]", "values": [{"measurement": "Inhibition % of experimental asthema in guinea pig", "setting": "[7]", "value": 50.4, "unit": "%"}]}
{"compound": "O=c1[nH]c2ccccc2n1CCCN1CCN(C(c2ccccc2)c2ccccc2)CC1", "note": "[Oxatomide, 1-[3-{4-(diphenylmethyl)-1-piperazinyl}propyl]-1,3-dihydro-2H-benzimidazol-2-one]", "values": [{"measurement": "Inhibition % of experimental asthema in guinea pig", "setting": "[7]", "value": 43.7, "unit": "%"}]}
